Data as given in US20260085034A1, “N-(BENZHYDRYL)CYCLOALKYLCARBOXAMIDE DERIVATIVES AS INHIBITORS OF GLYCOGEN SYNTHASE 1 (GYS1) AND METHODS OF USE THEREOF” (Maze Therapeutics, Inc., priority 2022, published 2026).

How the values were obtained:
[1] = molecular target: T1, recombinant hGYS1/GN1 protein (Homo sapiens, UniProt P13807); experiment: GYS1 coupled enzyme assay (PK/LDH); assay type: biochemical; conditions: geometric mean of at least 2 assay runs; NADH absorbance at 340 nm
T1 sequence (P13807 1-737): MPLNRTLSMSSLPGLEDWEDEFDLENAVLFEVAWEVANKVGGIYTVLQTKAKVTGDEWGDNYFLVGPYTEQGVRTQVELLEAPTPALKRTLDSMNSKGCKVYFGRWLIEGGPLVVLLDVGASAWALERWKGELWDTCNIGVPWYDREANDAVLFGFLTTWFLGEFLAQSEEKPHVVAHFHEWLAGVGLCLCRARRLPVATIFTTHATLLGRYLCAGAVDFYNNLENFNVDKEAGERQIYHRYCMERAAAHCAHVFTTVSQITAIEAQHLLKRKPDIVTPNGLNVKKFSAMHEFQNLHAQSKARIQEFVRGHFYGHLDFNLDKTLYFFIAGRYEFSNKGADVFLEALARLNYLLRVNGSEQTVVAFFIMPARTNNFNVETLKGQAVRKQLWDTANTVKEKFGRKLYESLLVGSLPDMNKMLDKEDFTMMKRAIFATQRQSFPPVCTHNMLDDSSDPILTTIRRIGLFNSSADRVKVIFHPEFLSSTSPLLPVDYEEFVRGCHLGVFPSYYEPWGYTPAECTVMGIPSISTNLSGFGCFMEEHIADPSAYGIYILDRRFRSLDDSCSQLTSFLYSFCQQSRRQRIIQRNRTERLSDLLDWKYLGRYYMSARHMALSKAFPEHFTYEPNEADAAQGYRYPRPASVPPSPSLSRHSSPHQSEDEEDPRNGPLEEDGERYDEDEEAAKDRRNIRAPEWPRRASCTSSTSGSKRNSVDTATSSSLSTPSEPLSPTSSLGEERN
T1 sequence (P46976 1-350 partner): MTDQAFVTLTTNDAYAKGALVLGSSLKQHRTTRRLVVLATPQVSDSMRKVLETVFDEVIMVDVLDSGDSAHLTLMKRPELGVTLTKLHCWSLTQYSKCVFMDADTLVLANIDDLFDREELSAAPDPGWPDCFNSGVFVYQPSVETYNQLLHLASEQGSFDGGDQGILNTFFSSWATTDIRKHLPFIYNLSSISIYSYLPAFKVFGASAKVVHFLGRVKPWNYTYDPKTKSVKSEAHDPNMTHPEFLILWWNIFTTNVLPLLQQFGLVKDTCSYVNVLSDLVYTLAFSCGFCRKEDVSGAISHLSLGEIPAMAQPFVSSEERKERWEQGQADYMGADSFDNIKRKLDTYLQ
Excerpt: (§1) The GYS1 coupled enzyme assay is a kinetic biochemical assay that indirectly quantifies the rate of glycogen synthesis by coupling the conversion of GYS1 substrate UDP-glucose into UDP with downstream enzymatic reactions. UDP is released from UDP-glucose as glucose monomers are linked into the growing glycogen strand by GYS1. The coupled assay then proceeds with pyruvate kinase utilizing UDP and phospho(enol)pyruvate (PEP) to form pyruvate. Lactate dehydrogenase then converts pyruvate and NADH into lactate and NAD+. Oxidation of NADH to NAD+ can be measured continuously with a plate reader by quantifying the decrease in NADH absorbance at 340 nm over time.
Compounds that inhibit the hGYS1 enzyme and, subsequently, the downstream conversion of NADH to NAD+, were tested using assay ready plates (black, clear bottom 384 well plates) in a final DMSO reaction volume of 2.5% DMSO. The Assay Buffer contained 50 mM Tris pH 7.5, 2 mM MgCl2, and 100 mM KCl. Fresh stocks of BSA at a final concentration of 0.02% and TCEP at 1 mM were added before splitting buffer into hGYS1 buffer and substrate buffer. To the hGYS1 buffer, rabbit liver glycogen was added at a final concentration of 0.2% glycogen. Glucose-6-Phosphate was added at 1 mM, recombinant hGYS1/GN1 protein was added at 50 nM to the substrate buffer, phosphoenolpyruvate (PEP) was added at 2 mM, UDP-Glucose was added at 0.8 mM, NADH) was added at 0.6 mM, and Pyruvate Kinase/Lactate Dehydrogenase was added at 20 units/mL. The reaction was initiated by mixing hGYS1 buffer and substrate buffer at a 1:1 ratio. Both buffers were plated using a liquid dispensing device with hGYS1 buffer plated first followed by the substrate buffer. Plates were spun briefly to eliminate air bubbles and are immediately read in continuous mode at an absorbance of 340 nm, for 10 time points in one-minute increments, for a total of 10 minutes. The slope from these 10 time points was normalized to the positive and negative control wells. The duplicate % inhibition values are then averaged and fit to a Hill equation for dose response according to the Levenberg-Marquardt algorithm with the Hill equation maximum set to 100 and the minimum set to 0.
The results are shown in Table 3 below, which reports the IC50 of each compound. Unless otherwise specified, IC50 values are reported as the geometric mean of at least 2 assay runs on separate days. Each run represents the average of a technical replicate, where each compound was assayed twice in the same plate. As shown in the table below, the compounds of the present invention are potent inhibitors of human GYS1.

[2] = molecular target: T2, recombinant hGYS2/GN1 protein (Homo sapiens, UniProt P54840); experiment: GYS2 coupled enzyme assay (PK/LDH); assay type: biochemical; conditions: geometric mean of at least 2 assay runs; NADH absorbance at 340 nm
T2 sequence (P54840 1-703): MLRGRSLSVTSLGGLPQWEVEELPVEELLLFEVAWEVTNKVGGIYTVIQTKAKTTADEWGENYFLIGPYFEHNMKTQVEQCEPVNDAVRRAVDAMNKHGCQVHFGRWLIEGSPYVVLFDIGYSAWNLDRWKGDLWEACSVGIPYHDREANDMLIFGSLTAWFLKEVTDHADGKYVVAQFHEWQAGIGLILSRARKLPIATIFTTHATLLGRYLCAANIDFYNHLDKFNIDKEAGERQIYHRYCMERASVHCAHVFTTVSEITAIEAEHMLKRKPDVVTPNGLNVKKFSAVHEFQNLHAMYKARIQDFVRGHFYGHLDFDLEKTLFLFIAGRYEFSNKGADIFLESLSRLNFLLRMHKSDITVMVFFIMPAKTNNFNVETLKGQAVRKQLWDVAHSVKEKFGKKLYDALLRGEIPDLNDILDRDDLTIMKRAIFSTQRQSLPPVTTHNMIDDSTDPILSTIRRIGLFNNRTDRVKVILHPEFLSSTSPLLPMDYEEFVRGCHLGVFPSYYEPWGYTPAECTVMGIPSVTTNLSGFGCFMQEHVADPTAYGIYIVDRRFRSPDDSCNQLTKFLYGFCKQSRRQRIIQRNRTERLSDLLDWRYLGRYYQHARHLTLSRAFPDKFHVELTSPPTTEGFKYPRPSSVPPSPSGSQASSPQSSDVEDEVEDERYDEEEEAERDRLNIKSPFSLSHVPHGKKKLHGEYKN
T2 sequence (P46976 1-350 partner): T1 sequence (P46976 1-350 partner)
Excerpt: as §1, with “GYS2” for “GYS1”, “GYS2.” for “GYS1.”
Compounds that inhibit the hGYS2 enzyme and, subsequently, the downstream conversion of NADH to NAD+, were tested using assay ready plates (black, clear bottom 384 well plates) in a final DMSO reaction volume of 2.5% DMSO. The Assay Buffer contained 50 mM Tris pH 7.5, 2 mM MgCl2, and 100 mM KCl. Fresh stocks of BSA at a final concentration of 0.02% and TCEP 1 mM were added before splitting buffer into hGYS2 buffer and substrate buffer. To the hGYS2 buffer, rabbit liver glycogen was added at a final concentration of 0.2% glycogen. Glucose-6-Phosphate was added at 2 mM, recombinant hGYS2/GN1 protein was added at 200 nM to the substrate buffer, phosphoenolpyruvate (PEP) was added at 2 mM, UDP-Glucose was added at 2 mM, NADH was added at 0.6 mM, and Pyruvate Kinase/Lactate Dehydrogenase was added at 20 units/mL. The reaction was initiated by mixing hGYS2 buffer and substrate buffer at a 1:1 ratio. Both buffers were plated using a liquid dispensing device with hGYS2 buffer plated first followed by the substrate buffer. Plates were spun briefly to eliminate air bubbles and are immediately read in continuous mode at an absorbance of 340 nm, for 10 time points in one-minute increments, for a total of 10 minutes. The slope from these 10 time points was normalized to the positive and negative control wells. The duplicate % inhibition values are then averaged and fit to a Hill equation for dose response according to the Levenberg-Marquardt algorithm with the Hill equation maximum set to 100 and the minimum set to 0.
The results are shown in Table 5 below, which reports the IC50 of each compound. Unless otherwise specified, IC50 values are reported as the geometric mean of at least 2 assay runs on separate days. As shown in the table below, the compounds of the present invention are not potent inhibitors of human GYS2. […] Each run represents the average of a technical replicate, where each compound was assayed twice in the same plate.

Structure (SMILES) | IC50 [1] [nM] | IC50 [2] [µM]
CC(C)c1ccc([C@@H](NC(=O)C2CC2)c2cccc3[nH]c(=O)oc23)cc1 (single isomer, unassigned) [compound 15] | 883 | > 100
NC(=O)Nc1ccccc1[C@H](NC(=O)C1CC1)c1ccc(C2CCC2)cc1 (single isomer, unassigned) [compound 18] | 964 | > 100
CNc1ccccc1[C@H](NC(=O)C1CC1)c1ccc(C(C)C)cc1 (single isomer, unassigned) [compound 39] | 502 | > 100
CC(C)c1ccc([C@@H](NC(=O)C2CC2)c2cccnc2N)cc1 (single isomer, unassigned) [compound 51] | 735 | > 100
CC(C)c1ccc([C@@H](NC(=O)C2CC2)c2ccccc2)cc1F (single isomer, unassigned) [compound 52] | 591 | > 100
CC(C)c1ccc([C@@H](NC(=O)C2CC2)c2ccccc2Cl)cc1 (single isomer, unassigned) [compound 58] | 1380 | > 100
CC(C)c1ccc([C@@H](NC(=O)C2CC2)c2ccccc2NC(=O)C2CC2)cc1 (single isomer, unassigned) [compound 61] | 710 | > 100
Cc1ccccc1[C@H](NC(=O)C1CC1)c1ccc(C(C)C)cc1 (single isomer, unassigned) [compound 65] | 514 | > 100
Cc1cccc([C@H](NC(=O)C2CC2)c2ccc(C(C)C)cc2)c1 (single isomer, unassigned) [compound 66] | 2100 | > 100
CC(C)c1ccc([C@@H](NC(=O)C2CC2)c2ccnn2C)cc1 (single isomer, unassigned) [compound 69] | 1820 | > 100
CC(C)c1ccc([C@@H](NC(=O)[C@H]2C[C@@H]2F)c2ccccc2NC(=O)C2CCN(CC(F)(F)F)CC2)cc1 [compound 9, N-(2-((R)-((1R,2S)-2-fluorocyclopropane-1-carboxamido)(4-isopropylphenyl)methyl)phenyl)-1-(2,2,2-trifluoroethyl)piperidine-4-carboxamide] | 956 | > 100
CC(C)c1ccc([C@@H](NC(=O)C2CC2)c2ccccc2NC(=O)[C@H]2CCN2)cc1 [compound 50, (R)-N-(2-((R)-cyclopropanecarboxamido(4-isopropylphenyl)methyl)phenyl)azetidine-2-carboxamide] | 1790 | 
CC(=O)N[C@H]1CCC[C@H]1C(=O)N[C@@H](c1ccccc1)c1ccc(C(C)C)cc1 [compound 55, (1R,2S)-2-acetamido-N-((S)-(4-isopropylphenyl)(phenyl)methyl)cyclopentane-1-carboxamide] | 2420 | 

These reach a lower IC50 [1]. Values come first.

IC50 [1] [nM] | IC50 [2] [µM] | Structure (SMILES)
194 | > 100 | CC(C)c1ccc([C@@H](NC(=O)[C@H]2C[C@@H]2F)c2ccccc2NC(N)=O)cc1F (single isomer, unassigned) [compound 10]
169 | > 100 | CC(C)c1ccc([C@@H](NC(=O)C2CC2)c2cccc3[nH]c(=O)[nH]c23)cc1 (single isomer, unassigned) [compound 29]
378 | > 100 | CC(=O)Nc1ccc(F)cc1[C@H](NC(=O)C1CC1)c1ccc(C(C)C)cc1 (single isomer, unassigned) [compound 44]
404 | > 100 | CC(C)c1ccc([C@@H](NC(=O)C2CC2)c2ccccc2N)cc1 (single isomer, unassigned) [compound 64]
397 | > 100 | COc1ccccc1[C@H](NC(=O)C1CC1)c1ccc(C(C)C)cc1 (single isomer, unassigned) [compound 71]
285 | > 100 | CC(=O)Nc1ccccc1[C@H](NC(=O)C1CC1)c1ccc(C(C)C)cc1 [compound 1, (R)-N-((2-acetamidophenyl)(4-isopropylphenyl)methyl)cyclopropanecarboxamide]
